Measurements as given in patent publication US20100311801A1, “USE OF TETRAMIC ACID DERIVATIVES FOR CONTROLLING NEMATODES” (priority 2007, published 2010).
Where “and” joins values, the source holds several entries; their conditions need not be identical. Equal entries are not always repeated.

How the values were obtained:
Type in all cases: in vivo
Meloidogyne arenaria = assay: Tomato pot trial, root-knot nematode galling index and eggs per root system; details: for Galling index: 78 d after first treatment, mean; for Appearance of root system (galls, egg masses, rot): visual, at harvest
Method: The experiment is carried out in a shade house at a temperature of around 78 F (76-80 F). The experiment is conduced in a complete randomize design with seven treatments and six replications. 6 inch pots are filled with 1,500 g of steam pasteurized (194 F for 2:30 h) field soil per pot and a 4 weeks old tomato cv. Rutgers transplant is added. The soil is an Arredondo fine sand with ca. 92% sand and 1% om. The soil is taken from a site with no history of root-knot nematode infestation.
The first preventive treatments of Vydate CLV and (I-2) (SC 240; adjuvant: Dyne-Amic (a blend of nonionic and organosilicone surfactants and MSO), 99% active w/v, added 0.25% v/v) are applied as foliar spray. Fosthiazate 900 is applied as a soil drench in 40 gallons water per acre. The second preventive application of Vydate and (I-2) are sprayed over foliage 7 days after l^st treatment. The soil is inoculated by adding 5,000 eggs/pot of Meloidogyne arenaria one day after the 2nd treatment. The curative treatments of Vydate and (I-2) are applied as a foliar spray on 21 and 28 days after inoculation with Meloidogyne arenaria.
All (I-2) and Vydate treatments are applied in 40 gallons of water/acre by a CO2 pressurized sprayer with a single 8003 VS TeeJet noozle. The tomato plants for each treatment are lined up in a row with the spray directed over their foliage until noticeable drip.
78 days after the 1st treatment the plants are harvested. Each root system is evaluated for the percentage of root-knot nematode galling and eggs per root system. A 1 to 6 scale is used for estimating the number galls per root system as follows: 1=no galls on the root system; 2=10%; 3=11 to 30%; 4=31 to 70%; 5=71 to 90%; 6=100% root system galled. Following the determination of percentage of galling the roots are processed in a bleach solution to dissolve away the gelatinous matrix surrounding the eggs. Individual eggs are collection on a 500 mesh sieve and poured into a counting dish for determining their numbers.

Mesocriconema xenoplax = assay: Vine field trial, number of nematodes in soil after foliar (I-2) or drench (imidacloprid) application; details: vines, (I-2) 12.5 fl oz per 605 plants foliar, imidacloprid 14 fl oz drench; for Activity against Mesocriconema xenoplax, number of nematodes, 30 d: 30 days after first treatment; for Activity against Mesocriconema xenoplax, number of nematodes, 60 d: 60 days after first treatment; for Activity against Mesocriconema xenoplax, number of nematodes, 0 d: prior to treatment
Method: (§1) In 5 replications, in each case 15 vines of the cultivar “Thompson Seedless 1948” are treated against soil-dwelling nematodes using a fogger. Here, a tank mix of the active compound (I-2) (SC 240) is applied after foliar application at the stated application rates with 0.25% of the adjuvant Activator 90, in comparison to imidacloprid (SC 550) after drench application by micro-irrigation injection. The water application rate is 75 gallons per acre=605 plants. Two applications of active compound (I-2) are carried out at an interval of 32 days.
(§2) Evaluation is carried out prior to the treatment and 30 days and 60 days after the first treatment by counting the number of nematodes in 500 g of soil.

Pratylenchus sp. = assay: as above; details: vines, (I-2) 12.5 fl oz per 605 plants foliar, imidacloprid 14 fl oz drench; for Activity against Pratylenchus sp., number of nematodes, 30 d: 30 days after first treatment; for Activity against Pratylenchus sp., number of nematodes, 60 d: 60 days after first treatment; for Activity against Pratylenchus sp., number of nematodes, 0 d: prior to treatment
Method: as §1, §2

Meloidogyne incognita = assay: as above; details: for Activity against Meloidogyne incognita, number of nematodes, 0 d: vines Thompson Seedless, prior to treatment, (I-2) SC 240 12.5 fl oz per 605 plants foliar, imidacloprid SC 550 14 fl oz drench; for Activity against Meloidogyne incognita, number of nematodes, 30 d / Activity against Meloidogyne incognita, number of nematodes, 60 d: vines, (I-2) 12.5 fl oz per 605 plants foliar (2 applications, 32 d interval), imidacloprid 14 fl oz drench; for Activity against Meloidogyne incognita, number of nematodes, 30 d: 30 days after first treatment; for Activity against Meloidogyne incognita, number of nematodes, 60 d: 60 days after first treatment
Method: as §1, §2

[1] = test system: Tylenchulus semipenetrans; assay: Foliar application of (I-2) to citrus in pots for control of Tylenchulus semipenetrans; details: individual trees
Method: Foliar Application of (I-2) to Citrus in Pots for Control of Tylenchulus semipenetrans
Treatments: 15 trees sprayed with (I-2=Movento), 15 trees sprayed with water (presample each pot); 25 mL/tree
Add Tylenchulus semipenetrans larvae to all pots. The following day take trees out of greenhouse. Cover top of pot to exclude spray from soil. (I-2) (SC 240) is sprayed in a concentration of 2.6 ml plus 2.5 ml adjuvant MSO (methylated seed oil), (100% active w/v, added to the spray solution at 0.25% v/v) per liter sprac solution. Spray canopy from two sides of trees to runoff with a 2 gallon “Sure Spray” pump sprayer (Chapin Mfg.) using a nozzle that delivers a cone shape spray pattern. Allow material to dry before returning plants to greenhouse. Repeat in 14 days.
For this citrus nematode trial, 5-year old Volkamer lemon seedlings are infested with T. semipenetrans obtained from the field and maintained in the greenhouse (25-32° C.) for use in pesticide trials. Trees used in the experiment are not treated with nematicidal compounds. The seedlings are growing in a 50:50 mixture of Astatula sand (97% sand) and Pro-mix potting mixture in rectangular pots (10×10×30 cm). Trees are irrigated normally, but receive no fertilizer or pesticide treatments other than (I-2) during the experiment. Effects on citrus nematode are evaluated by soil sampling 30 days and 60 days after treatment.
Tylenchulus semipenetrans raw data (juvenile and male nematodes per […] soil. Pi is initial population before treatment, Pf is final population at one and two months post treatment).

[2] = preventive treatment, tomato cv. Rutgers, scale 1 to 6 (1 = no galls, 6 = 100% of root system galled)
[3] = preventive treatment, tomato, 5,000 eggs/pot inoculated

Row | SMILES | Galling index (Meloidogyne arenaria; [2]) | Number of eggs/root system 78 d after first treatment (Meloidogyne arenaria; [3]) | Appearance of root system (galls, egg masses, rot) (Meloidogyne arenaria; preventive treatment) | Activity against Mesocriconema xenoplax, number of nematodes, 30 d (Mesocriconema xenoplax) | Activity against Mesocriconema xenoplax, number of nematodes, 60 d (Mesocriconema xenoplax) | Activity against Mesocriconema xenoplax, number of nematodes, 0 d (Mesocriconema xenoplax) | Activity against Pratylenchus sp., number of nematodes, 30 d (Pratylenchus sp.) | Activity against Pratylenchus sp., number of nematodes, 60 d (Pratylenchus sp.) | Activity against Pratylenchus sp., number of nematodes, 0 d (Pratylenchus sp.) | Activity against Meloidogyne incognita, number of nematodes, 0 d (Meloidogyne incognita) | Activity against Meloidogyne incognita, number of nematodes, 30 d (Meloidogyne incognita) | Activity against Meloidogyne incognita, number of nematodes, 60 d (Meloidogyne incognita) | Treat Pi (initial population before treatment) ([1]; Volkamer lemon seedlings in pots, before treatment) | Treat Pf (final population one month post treatment) ([1]; (I-2) SC 240 2.6 ml/l plus MSO foliar, repeated after 14 days, one month post treatment) | Treat Pf2 (final population two months post treatment) ([1]; (I-2) SC 240 2.6 ml/l plus MSO foliar, repeated after 14 days, two months post treatment) | Number of eggs/root system 78 d after first treatment (Meloidogyne arenaria; curative treatment (21 and 28 days after inoculation), tomato) | Galling index (Meloidogyne arenaria; curative treatment (21 and 28 days after inoculation), tomato, scale 1 to 6) | Appearance of root system (galls, egg masses, rot) (Meloidogyne arenaria; curative treatment)
1 | CCOP(=O)(SC(C)CC)N1CCSC1=O (stereo not drawn) [Fosthiazate, reference compound] | 5.3 | 453,500 eggs/root system | darkened decaying roots with numerous galls and egg masses |  |  |  |  |  |  |  |  |  |  |  |  |  |  | 
2 | O=[N+]([O-])NC1=NCCN1Cc1ccc(Cl)nc1 [Imidacloprid, reference compound] |  |  |  | 808.4 nematodes in 500 g of soil | 958.46 nematodes in 500 g of soil | 1863 nematodes in 500 g of soil | 320 nematodes in 500 g of soil | 319.6 nematodes in 500 g of soil | 406 nematodes in 500 g of soil | 267 nematodes in 500 g of soil | 171 nematodes in 500 g of soil | 188 nematodes in 500 g of soil |  |  |  |  |  | 
3 | CCOC(=O)OC1=C(c2cc(C)ccc2C)C(=O)N[C@]12CC[C@@H](OC)CC2 [(I-2)] | 6.0 | 421,600 eggs/root system | numerous egg masses and coalesced galls | 861.2 nematodes in 500 g of soil | 942.8 nematodes in 500 g of soil | 1817 nematodes in 500 g of soil | 371.2 nematodes in 500 g of soil | 454 nematodes in 500 g of soil | 826 nematodes in 500 g of soil | 312 nematodes in 500 g of soil | 140.8 nematodes in 500 g of soil | 178.8 nematodes in 500 g of soil | 2412.5 juvenile and male nematodes per 100 cm^2 soil and 2100.0 juvenile and male nematodes per 100 cm^2 soil and 1700.0 juvenile and male nematodes per 100 cm^2 soil and 9237.5 juvenile and male nematodes per 100 cm^2 soil and 4180.0 juvenile and male nematodes per 100 cm^2 soil and 400.0 juvenile and male nematodes per 100 cm^2 soil and 4250.0 juvenile and male nematodes per 100 cm^2 soil (2×) and 1625.0 juvenile and male nematodes per 100 cm^2 soil and 125.0 juvenile and male nematodes per 100 cm^2 soil (2×) and 2190.0 juvenile and male nematodes per 100 cm^2 soil and 210.0 juvenile and male nematodes per 100 cm^2 soil and 2490.0 juvenile and male nematodes per 100 cm^2 soil and 250.0 juvenile and male nematodes per 100 cm^2 soil | 168.83 juvenile and male nematodes per 100 cm^2 soil and 519.74 juvenile and 534.25 juvenile and 1440.00 juvenile and 2753.33 juvenile and 336.84 juvenile and 708.33 juvenile and 638.16 juvenile and 87.21 juvenile and 1803.37 juvenile and 1402.78 juvenile and 60.81 juvenile and 1448.86 juvenile and 86.21 juvenile and 54.35 juvenile | 181.82 juvenile and male nematodes per 100 cm^2 soil and 380.95 juvenile and 338.71 juvenile and 1207.55 juvenile and 7807.69 juvenile and 347.46 juvenile and 1908.33 juvenile and 4122.22 juvenile and 175.44 juvenile and 1409.84 juvenile and 3205.36 juvenile and 92.59 juvenile and 1481.13 juvenile and 551.02 juvenile and 531.25 juvenile | 141,000 eggs/root system | 4.5 | little darkening or rotting appearance
